Assay results as given in ChEMBL document CHEMBL3885881, “DrugMatrix”.

Organism: Rattus norvegicus
Assay: DrugMatrix - Regimen: Daily Repeat
Format: toxicity, organism-based, Sprague-Dawley
Design: regimen Daily Repeat, gender Male, age 6-8 weeks
Settings: in vivo, sc, route subcutaneous, […]; for ABSOLUTE BASOPHIL / ABSOLUTE EOSINOPHIL / ABSOLUTE LYMPHOCYTE / ABSOLUTE MONOCYTE / ABSOLUTE SEGMENTED NEUTROPHIL / BASOPHIL / EOSINOPHIL / ERYTHROCYTE COUNT / HEMATOCRIT / HEMOGLOBIN / LEUKOCYTE COUNT / LYMPHOCYTE / MEAN CORPUSCULAR HEMOGLOBIN / MEAN CORPUSCULAR HEMOGLOBIN CONCENTRATION / MEAN CORPUSCULAR VOLUME / MONOCYTE / NEUTROPHIL / NUCLEATED RED BLOOD CELLS / PLATELET COUNT: tissue Blood; for ALANINE AMINOTRANSFERASE / ALBUMIN / ALKALINE PHOSPHATASE / ASPARTATE AMINOTRANSFERASE / BLOOD UREA NITROGEN / CARBON DIOXIDE / CHLORIDE / CHOLESTEROL / CREATINE PHOSPHOKINASE / CREATININE / GLUCOSE / LACTATE DEHYDROGENASE / LIPASE / PHOSPHORUS / POTASSIUM / SODIUM / TOTAL BILIRUBIN / TOTAL PROTEIN / URIC ACID: tissue Plasma
[1] = 7 mg/kg, 72 h, dose level High, time 3 day
[2] = 7 mg/kg, 120 h, dose level High, time 5 day
[3] = 72 h, dose 1.5 mg/Kg, dose level Low, time 3 day
[4] = 120 h, dose 1.5 mg/Kg, dose level Low, time 5 day

## CC1=C(/C=C/C(C)=C/C=C/C(C)=C/C(=O)O)C(C)(C)CCC1 [TRETINOIN]
[1]
  ABSOLUTE BASOPHIL: 0 CELLS/uL
  ABSOLUTE EOSINOPHIL: 0 CELLS/uL
  ABSOLUTE LYMPHOCYTE: 16685.33 CELLS/uL
  ABSOLUTE MONOCYTE: 222.33 CELLS/uL
  ABSOLUTE SEGMENTED NEUTROPHIL: 2859 CELLS/uL
  BASOPHIL: 0%
  EOSINOPHIL: 0%
  ERYTHROCYTE COUNT: 5.42 x10E6/uL
  HEMATOCRIT: 34.57%
  HEMOGLOBIN: 12.7 G/DL
  LEUKOCYTE COUNT: 19.77 x10E3/uL
  LYMPHOCYTE: 84%
  MEAN CORPUSCULAR HEMOGLOBIN: 23.43 pg
  MEAN CORPUSCULAR HEMOGLOBIN CONCENTRATION: 36.73 G/DL
  MEAN CORPUSCULAR VOLUME: 63.77 fL
  MONOCYTE: 1%
  NEUTROPHIL: 15%
  NUCLEATED RED BLOOD CELLS: 0 /100WBC
  PLATELET COUNT: 1323.33 x10E3/uL
  ALANINE AMINOTRANSFERASE: 50 u/L
  ALBUMIN: 4.03 G/DL
  ALKALINE PHOSPHATASE: 328.67 u/L
  ASPARTATE AMINOTRANSFERASE: 77.33 u/L
  BLOOD UREA NITROGEN: 15.67 mg/dL
  CARBON DIOXIDE: 15 mmol/L
  CHLORIDE: 103.67 MEQ/L
  CHOLESTEROL: 79 mg/dL
  CREATINE PHOSPHOKINASE: 311.33 u/L
  CREATININE: 0.19 mg/dL
  GLUCOSE: 165.33 mg/dL
  LACTATE DEHYDROGENASE: 120.33 u/L
  LIPASE: 9.67 u/L
  PHOSPHORUS: 13.53 mg/dL
  POTASSIUM: 7.16 MEQ/L
  SODIUM: 147 MEQ/L
  TOTAL BILIRUBIN: 0.2 mg/dL
  TOTAL PROTEIN: 5.97 G/DL
  URIC ACID: 1.5 mg/dL
[2]
  ABSOLUTE BASOPHIL: 0 CELLS/uL
  ABSOLUTE EOSINOPHIL: 71.67 CELLS/uL
  ABSOLUTE LYMPHOCYTE: 17691.67 CELLS/uL
  ABSOLUTE MONOCYTE: 531.67 CELLS/uL
  ABSOLUTE SEGMENTED NEUTROPHIL: 3905 CELLS/uL
  BASOPHIL: 0%
  EOSINOPHIL: 0.33%
  ERYTHROCYTE COUNT: 5.84 x10E6/uL
  HEMATOCRIT: 36.1%
  HEMOGLOBIN: 13.37 G/DL
  LEUKOCYTE COUNT: 22.2 x10E3/uL
  LYMPHOCYTE: 79.67%
  MEAN CORPUSCULAR HEMOGLOBIN: 22.9 pg
  MEAN CORPUSCULAR HEMOGLOBIN CONCENTRATION: 37.03 G/DL
  MEAN CORPUSCULAR VOLUME: 61.8 fL
  MONOCYTE: 2.33%
  NEUTROPHIL: 17.67%
  NUCLEATED RED BLOOD CELLS: 0 /100WBC
  PLATELET COUNT: 1087.33 x10E3/uL
  ALANINE AMINOTRANSFERASE: 46.33 u/L
  ALBUMIN: 3.87 G/DL
  ALKALINE PHOSPHATASE: 319.67 u/L
  ASPARTATE AMINOTRANSFERASE: 88 u/L
  BLOOD UREA NITROGEN: 14.67 mg/dL
  CARBON DIOXIDE: 33.33 mmol/L
  CHLORIDE: 103.33 MEQ/L
  CHOLESTEROL: 75.67 mg/dL
  CREATINE PHOSPHOKINASE: 348 u/L
  CREATININE: 0.28 mg/dL
  GLUCOSE: 172.33 mg/dL
  LACTATE DEHYDROGENASE: 105.67 u/L
  LIPASE: 12 u/L
  PHOSPHORUS: 13.8 mg/dL
  POTASSIUM: 6.84 MEQ/L
  SODIUM: 147.23 MEQ/L
  TOTAL BILIRUBIN: 0.13 mg/dL
  TOTAL PROTEIN: 6.07 G/DL
  URIC ACID: 1.8 mg/dL
[3]
  ABSOLUTE BASOPHIL: 0 CELLS/uL
  ABSOLUTE EOSINOPHIL: 41.67 CELLS/uL
  ABSOLUTE LYMPHOCYTE: 10665.33 CELLS/uL
  ABSOLUTE MONOCYTE: 55.67 CELLS/uL
  ABSOLUTE SEGMENTED NEUTROPHIL: 2104 CELLS/uL
  BASOPHIL: 0%
  EOSINOPHIL: 0.33%
  ERYTHROCYTE COUNT: 4.74 x10E6/uL
  HEMATOCRIT: 30.27%
  HEMOGLOBIN: 11.93 G/DL
  LEUKOCYTE COUNT: 12.87 x10E3/uL
  LYMPHOCYTE: 83.67%
  MEAN CORPUSCULAR HEMOGLOBIN: 25.23 pg
  MEAN CORPUSCULAR HEMOGLOBIN CONCENTRATION: 39.47 G/DL
  MEAN CORPUSCULAR VOLUME: 63.87 fL
  MONOCYTE: 0.33%
  NEUTROPHIL: 15.67%
  NUCLEATED RED BLOOD CELLS: 0 /100WBC
  PLATELET COUNT: 1093.33 x10E3/uL
  ALANINE AMINOTRANSFERASE: 51 u/L
  ALBUMIN: 4.23 G/DL
  ALKALINE PHOSPHATASE: 460.67 u/L
  ASPARTATE AMINOTRANSFERASE: 100 u/L
  BLOOD UREA NITROGEN: 15.67 mg/dL
  CARBON DIOXIDE: 22.33 mmol/L
  CHLORIDE: 107.67 MEQ/L
  CHOLESTEROL: 98.33 mg/dL
  CREATINE PHOSPHOKINASE: 387.67 u/L
  CREATININE: 0.23 mg/dL
  GLUCOSE: 164.33 mg/dL
  LACTATE DEHYDROGENASE: 522.33 u/L
  LIPASE: 11.33 u/L
  PHOSPHORUS: 12.5 mg/dL
  POTASSIUM: 6.67 MEQ/L
  SODIUM: 150.27 MEQ/L
  TOTAL BILIRUBIN: 0.27 mg/dL
  TOTAL PROTEIN: 6.27 G/DL
  URIC ACID: 1.97 mg/dL
[4]
  ABSOLUTE BASOPHIL: 0 CELLS/uL
  ABSOLUTE EOSINOPHIL: 0 CELLS/uL
  ABSOLUTE LYMPHOCYTE: 9182.33 CELLS/uL
  ABSOLUTE MONOCYTE: 21 CELLS/uL
  ABSOLUTE SEGMENTED NEUTROPHIL: 1630 CELLS/uL
  BASOPHIL: 0%
  EOSINOPHIL: 0%
  ERYTHROCYTE COUNT: 5.54 x10E6/uL
  HEMATOCRIT: 34.87%
  HEMOGLOBIN: 12.9 G/DL
  LEUKOCYTE COUNT: 10.83 x10E3/uL
  LYMPHOCYTE: 85%
  MEAN CORPUSCULAR HEMOGLOBIN: 23.27 pg
  MEAN CORPUSCULAR HEMOGLOBIN CONCENTRATION: 37 G/DL
  MEAN CORPUSCULAR VOLUME: 62.9 fL
  MONOCYTE: 0.33%
  NEUTROPHIL: 14.67%
  NUCLEATED RED BLOOD CELLS: 0 /100WBC
  PLATELET COUNT: 981.67 x10E3/uL
  ALANINE AMINOTRANSFERASE: 52 u/L
  ALBUMIN: 3.9 G/DL
  ALKALINE PHOSPHATASE: 336.33 u/L
  ASPARTATE AMINOTRANSFERASE: 91 u/L
  BLOOD UREA NITROGEN: 16.33 mg/dL
  CARBON DIOXIDE: 24.33 mmol/L
  CHLORIDE: 107 MEQ/L
  CHOLESTEROL: 79 mg/dL
  CREATINE PHOSPHOKINASE: 270.33 u/L
  CREATININE: 0.17 mg/dL
  GLUCOSE: 180.33 mg/dL
  LACTATE DEHYDROGENASE: 147.67 u/L
  LIPASE: 10.33 u/L
  PHOSPHORUS: 14.17 mg/dL
  POTASSIUM: 6.48 MEQ/L
  SODIUM: 147.97 MEQ/L
  TOTAL BILIRUBIN: 0.23 mg/dL
  TOTAL PROTEIN: 6.07 G/DL
  URIC ACID: 2.07 mg/dL
